Measured values from PubChem BioAssay (NCI).
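The compound was tested at five concentrations on cells cultured in 96-well plates, with a 48-hour exposure period. TGI is the concentration that stops growth completely.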

How the values were obtained:
Assay in all cases: DTP human tumour cell line panel, 48 h
SK-OV-3 ovarian = test system: SK-OV-3 ovarian
M14 melanoma = test system: M14 melanoma
KM12 colon = test system: KM12 colon
NCI-H522 lung = test system: NCI-H522 lung
SN12C renal = test system: SN12C renal
UO-31 renal = test system: UO-31 renal
LOX IMVI melanoma = test system: LOX IMVI melanoma
TK-10 renal = test system: TK-10 renal
HOP-18 NSCLC = test system: HOP-18 NSCLC
CCRF-CEM leukemia = test system: CCRF-CEM leukemia
HOP-62 NSCLC = test system: HOP-62 NSCLC
XF 498 CNS = test system: XF 498 CNS
M19-MEL melanoma = test system: M19-MEL melanoma
DMS 273 small cell lung = test system: DMS 273 small cell lung
OVCAR-5 ovarian = test system: OVCAR-5 ovarian
MALME-3M melanoma = test system: MALME-3M melanoma
RXF-631 renal = test system: RXF-631 renal
OVCAR-3 ovarian = test system: OVCAR-3 ovarian
RXF 393 renal = test system: RXF 393 renal
HCC-2998 colon = test system: HCC-2998 colon
SNB-75 CNS = test system: SNB-75 CNS
A549 NSCLC = test system: A549 NSCLC
IGROV1 ovarian = test system: IGROV1 ovarian
SW-620 colon = test system: SW-620 colon
ACHN renal = test system: ACHN renal
SNB-19 CNS = test system: SNB-19 CNS
OVCAR-4 ovarian = test system: OVCAR-4 ovarian
K-562 leukemia = test system: K-562 leukemia
UACC-257 melanoma = test system: UACC-257 melanoma
NCI-H23 lung = test system: NCI-H23 lung
DMS 114 small cell lung = test system: DMS 114 small cell lung
SK-MEL-5 melanoma = test system: SK-MEL-5 melanoma
EKVX NSCLC = test system: EKVX NSCLC
OVCAR-8 ovarian = test system: OVCAR-8 ovarian
CAKI-1 renal = test system: CAKI-1 renal
SK-MEL-28 melanoma = test system: SK-MEL-28 melanoma
SF-295 CNS = test system: SF-295 CNS
SNB-78 CNS = test system: SNB-78 CNS
786-0 renal = test system: 786-0 renal
SF-539 CNS = test system: SF-539 CNS
SF-268 CNS = test system: SF-268 CNS
HOP-92 NSCLC = test system: HOP-92 NSCLC
DLD-1 colon = test system: DLD-1 colon
NCI-H226 lung = test system: NCI-H226 lung
HCT-116 colon = test system: HCT-116 colon
A498 renal = test system: A498 renal
KM20L2 colon = test system: KM20L2 colon
HL-60(TB) leukemia = test system: HL-60(TB) leukemia
UACC-62 melanoma = test system: UACC-62 melanoma
COLO 205 colon = test system: COLO 205 colon
HT29 colon = test system: HT29 colon
NCI-H460 lung = test system: NCI-H460 lung
U251 CNS = test system: U251 CNS
LXFL 529 NSCLC = test system: LXFL 529 NSCLC
RPMI-8226 leukemia = test system: RPMI-8226 leukemia

Measured: TGI

CCOC(=O)C1N(S(=O)(=O)c2ccc(C)cc2)CCC12C(c1ccc(OC)c(OC)c1)=Nc1ccccc12 (stereo not given)
> 100 µM: all assays above
